The text below walks through data of US20240398893A1, “ANTI-CORONAVIRUS POLYPEPTIDE AS WELL AS DERIVATIVE AND APPLICATION THEREOF” (priority 2021, published 2024).

The test system of the assay is pseudovirus of SARS-COV-2 variant Omicron (BA.1). Conditions: pseudovirus of variant Omicron (BA.1).
Turning to `CC[C@H](C)[C@H](NC(=O)CNC(=O)[C@H](CO)NC(=O)[C@@H](NC(=O)[C@H](CC(=O)O)NC(=O)CNC(=O)[C@H](Cc1ccccc1)NC(=O)[C@H](CCCCN)NC(=O)[C@@H](N)C(C)C)[C@@H](C)CC)C(=O)N[C@@H](CC(N)=O)C(=O)N[C@@H](C)C(=O)N[C@@H](CO)C(=O)N[C@H](C(=O)N[C@H](C(=O)N[C@@H](CC(N)=O)C(=O)N[C@H](C(=O)N[C@@H](CCCCN)C(=O)N[C@@H](CCC(=O)O)C(=O)N[C@@H](CCC(=O)O)C(=O)N[C@H](C(=O)N[C@@H](CC(=O)O)C(=O)N[C@@H](CCCNC(=N)N)C(=O)N[C@@H](CC(C)C)C(=O)N[C@@H](Cc1ccc(O)cc1)C(=O)N[C@@H](CCC(=O)O)C(=O)N[C@H](C(=O)N[C@H](C(=O)N[C@@H](CCCCN)C(=O)N[C@@H](CC(N)=O)C(=O)N[C@@H](CC(C)C)C(=O)N[C@@H](CC(N)=O)C(=O)N[C@@H](CCC(=O)O)C(=O)N[C@@H](CO)C(=O)N[C@@H](CC(C)C)C(=O)N[C@H](C(=O)N[C@@H](CC(=O)O)C(=O)N[C@@H](CC(C)C)C(=O)N[C@@H](CCC(N)=O)C(=O)N[C@@H](CCC(=O)O)C(=O)N[C@@H](CC(C)C)C(=O)NCC(=O)N[C@@H](CO)C(=O)NCC(=O)N[C@@H](CO)C(=O)NCC(=O)N[C@@H](CSCC(=O)O[C@H]1CC[C@@]2(C)C(=CC[C@H]3[C@@H]4CC[C@H]([C@H](C)CCCC(C)C)[C@@]4(C)CC[C@@H]32)C1)C(N)=O)[C@@H](C)CC)C(C)C)C(C)C)[C@@H](C)CC)[C@@H](C)CC)C(C)C)C(C)C` [P3-3-GS-Chol], a half-maximal effect (EC50) was put at 1730 nM. Then `CC[C@H](C)[C@H](NC(=O)CNC(=O)[C@H](CO)NC(=O)[C@@H](NC(=O)[C@H](CC(=O)O)NC(=O)CNC(=O)[C@H](Cc1ccccc1)NC(=O)[C@H](CCCCN)NC(=O)[C@@H](N)C(C)C)[C@@H](C)CC)C(=O)N[C@@H](CC(N)=O)C(=O)N[C@@H](C)C(=O)N[C@@H](CO)C(=O)N[C@H](C(=O)N[C@H](C(=O)N[C@@H](CC(N)=O)C(=O)N[C@H](C(=O)N[C@@H](CCCCN)C(=O)N[C@@H](CCC(=O)O)C(=O)N[C@@H](CCC(=O)O)C(=O)N[C@H](C(=O)N[C@@H](CC(=O)O)C(=O)N[C@@H](CCCNC(=N)N)C(=O)N[C@@H](CC(C)C)C(=O)N[C@@H](Cc1ccc(O)cc1)C(=O)N[C@@H](CCC(=O)O)C(=O)N[C@H](C(=O)N[C@H](C(=O)N[C@@H](CCCCN)C(=O)N[C@@H](CC(N)=O)C(=O)N[C@@H](CC(C)C)C(=O)N[C@@H](CC(N)=O)C(=O)N[C@@H](CCC(=O)O)C(=O)N[C@@H](CO)C(=O)N[C@@H](CC(C)C)C(=O)N[C@H](C(=O)N[C@@H](CC(=O)O)C(=O)N[C@@H](CC(C)C)C(=O)N[C@@H](CCC(N)=O)C(=O)N[C@@H](CCC(=O)O)C(=O)N[C@@H](CC(C)C)C(=O)N[C@@H](CSCC(=O)NCCOCCOCCOCCOCC(=O)O[C@H]1CC[C@@]2(C)C(=CC[C@H]3[C@@H]4CC[C@H]([C@H](C)CCCC(C)C)[C@@]4(C)CC[C@@H]32)C1)C(N)=O)[C@@H](C)CC)C(C)C)C(C)C)[C@@H](C)CC)[C@@H](C)CC)C(C)C)C(C)C` [P3-3-PEG-Chol], with 571 nM; and `CC[C@H](C)[C@H](NC(=O)CNC(=O)[C@H](CO)NC(=O)[C@@H](NC(=O)[C@H](CC(=O)O)NC(=O)CNC(=O)[C@H](Cc1ccccc1)NC(=O)[C@H](CCCCN)NC(=O)[C@@H](N)C(C)C)[C@@H](C)CC)C(=O)N[C@@H](CC(N)=O)C(=O)N[C@@H](C)C(=O)N[C@@H](CO)C(=O)N[C@H](C(=O)N[C@H](C(=O)N[C@@H](CC(N)=O)C(=O)N[C@H](C(=O)N[C@@H](CCCCN)C(=O)N[C@@H](CCC(=O)O)C(=O)N[C@@H](CCC(=O)O)C(=O)N[C@H](C(=O)N[C@@H](CC(=O)O)C(=O)N[C@@H](CCCNC(=N)N)C(=O)N[C@@H](CC(C)C)C(=O)N[C@@H](Cc1ccc(O)cc1)C(=O)N[C@@H](CCC(=O)O)C(=O)N[C@H](C(=O)N[C@H](C(=O)N[C@@H](CCCCN)C(=O)N[C@@H](CC(N)=O)C(=O)N[C@@H](CC(C)C)C(=O)N[C@@H](CC(N)=O)C(=O)N[C@@H](CCC(=O)O)C(=O)N[C@@H](CO)C(=O)N[C@@H](CC(C)C)C(=O)N[C@H](C(=O)N[C@@H](CC(=O)O)C(=O)N[C@@H](CC(C)C)C(=O)N[C@@H](CCC(N)=O)C(=O)N[C@@H](CCC(=O)O)C(=O)N[C@@H](CC(C)C)C(=O)O)[C@@H](C)CC)C(C)C)C(C)C)[C@@H](C)CC)[C@@H](C)CC)C(C)C)C(C)C` [P3-3], with 22700 nM.

Usually EC50 stands for the concentration that produces a half-maximal response. Low values mean higher potency in that assay, high ones lower potency in that assay.
